Data: the NIST ThermoML archive (doi:10.1016/j.fluid.2019.112283)
Numbers after ± are expanded uncertainties.

Key:
[1] = 298.15 K; 101.33 kPa; Liquid; Vibrating tube method
[2] = excess molar enthalpy (molar enthalpy of mixing); xn = mol fraction of the nth substance listed; conditions: 298.15 K, 101 kPa, Liquid, Flow calorimetry

CCCCCCN [1-hexanamine]
Conditions | mass density [kg/m3]
[1] | 760.16 ± 0.23

CCCCN [1-butanamine]
Conditions | mass density [kg/m3]
[1] | 732.18 ± 0.24

CC(=O)N(C)C [N,N-dimethylethanamide]
Conditions | mass density [kg/m3]
[1] | 936.14 ± 0.21

CCCNCCC [dipropylamine]
Conditions | mass density [kg/m3]
[1] | 733.37 ± 0.24

CCCCNCCCC [dibutylamine] + CN(C)C=O
[2]
Conditions | excess molar enthalpy [kcal/mol]
x2 = 0.0491 | 0.0449 ± 0.00765
x2 = 0.1014 | 0.0923 ± 0.00884
x2 = 0.1488 | 0.13 ± 0.0098
x2 = 0.2006 | 0.163 ± 0.0108
x2 = 0.2482 | 0.187 ± 0.012
x2 = 0.3006 | 0.21 ± 0.0131
x2 = 0.351 | 0.228 ± 0.0141
x2 = 0.4021 | 0.247 ± 0.0151
x2 = 0.4497 | 0.259 ± 0.0158
x2 = 0.4982 | 0.266 ± 0.016
x2 = 0.5505 | 0.267 ± 0.0163
x2 = 0.599 | 0.262 ± 0.016
x2 = 0.65 | 0.253 ± 0.0155
x2 = 0.6997 | 0.239 ± 0.0148
x2 = 0.7506 | 0.22 ± 0.0139
x2 = 0.7994 | 0.195 ± 0.0127
x2 = 0.8503 | 0.16 ± 0.0115
x2 = 0.9 | 0.117 ± 0.0105
x2 = 0.9501 | 0.0645 ± 0.00908

CCCNCCC [dipropylamine] + CN(C)C=O
[2]
Conditions | excess molar enthalpy [kcal/mol]
x2 = 0.0358 | 0.021 ± 0.00478
x2 = 0.1002 | 0.0576 ± 0.0055
x2 = 0.1512 | 0.0839 ± 0.00645
x2 = 0.1984 | 0.107 ± 0.00741
x2 = 0.2504 | 0.126 ± 0.00813
x2 = 0.3016 | 0.142 ± 0.00908
x2 = 0.3483 | 0.157 ± 0.0098
x2 = 0.4005 | 0.166 ± 0.0103
x2 = 0.4495 | 0.176 ± 0.0108
x2 = 0.5005 | 0.179 ± 0.0108
x2 = 0.5505 | 0.18 ± 0.011
x2 = 0.6012 | 0.178 ± 0.0108
x2 = 0.6587 | 0.169 ± 0.0103
x2 = 0.6997 | 0.161 ± 0.01
x2 = 0.7518 | 0.147 ± 0.00932
x2 = 0.7983 | 0.13 ± 0.0086
x2 = 0.8485 | 0.105 ± 0.00765
x2 = 0.8991 | 0.076 ± 0.00693
x2 = 0.9504 | 0.0406 ± 0.00598

CN(C)C=O [dimethylformamide]
Conditions | mass density [kg/m3]
[1] | 943.78 ± 0.21

CCCCNCCCC [dibutylamine]
Conditions | mass density [kg/m3]
[1] | 755.7 ± 0.24

CCCCCCN [1-hexanamine] + CN(C)C=O
[2]
Conditions | excess molar enthalpy [kcal/mol]
x2 = 0.0514 | 0.0282 ± 0.0043
x2 = 0.1007 | 0.0523 ± 0.00502
x2 = 0.1516 | 0.076 ± 0.00574
x2 = 0.2009 | 0.0942 ± 0.00621
x2 = 0.2522 | 0.11 ± 0.00717
x2 = 0.3006 | 0.127 ± 0.00813
x2 = 0.3519 | 0.14 ± 0.0086
x2 = 0.4007 | 0.148 ± 0.00908
x2 = 0.4518 | 0.155 ± 0.00932
x2 = 0.5003 | 0.158 ± 0.00956
x2 = 0.5505 | 0.158 ± 0.00956
x2 = 0.5982 | 0.155 ± 0.00932
x2 = 0.6507 | 0.147 ± 0.00908
x2 = 0.7002 | 0.136 ± 0.00837
x2 = 0.7503 | 0.122 ± 0.00789
x2 = 0.8005 | 0.105 ± 0.00693
x2 = 0.8506 | 0.0846 ± 0.00645
x2 = 0.8995 | 0.0588 ± 0.0055
x2 = 0.9502 | 0.0308 ± 0.00478

CCCCCCN [1-hexanamine] + CC(=O)N(C)C
[2]
Conditions | excess molar enthalpy [kcal/mol]
x2 = 0.0509 | 0.017 ± 0.00287
x2 = 0.1005 | 0.0337 ± 0.00311
x2 = 0.1507 | 0.0468 ± 0.00359
x2 = 0.1994 | 0.0583 ± 0.00406
x2 = 0.2488 | 0.0705 ± 0.00454
x2 = 0.3018 | 0.0808 ± 0.00502
x2 = 0.3484 | 0.0882 ± 0.0055
x2 = 0.398 | 0.0961 ± 0.00598
x2 = 0.4502 | 0.1 ± 0.00598
x2 = 0.5006 | 0.101 ± 0.00621
x2 = 0.5493 | 0.101 ± 0.00621
x2 = 0.6002 | 0.0994 ± 0.00598
x2 = 0.6492 | 0.0958 ± 0.00598
x2 = 0.7001 | 0.0896 ± 0.0055
x2 = 0.7491 | 0.0815 ± 0.00526
x2 = 0.7996 | 0.0707 ± 0.00478
x2 = 0.8513 | 0.0569 ± 0.0043
x2 = 0.9008 | 0.0409 ± 0.00382
x2 = 0.9503 | 0.0217 ± 0.00335

CCCCN [1-butanamine] + CN(C)C=O
[2]
Conditions | excess molar enthalpy [kcal/mol]
x2 = 0.051 | 0.0213 ± 0.00335
x2 = 0.1009 | 0.0397 ± 0.00359
x2 = 0.1496 | 0.054 ± 0.00406
x2 = 0.1703 | 0.059 ± 0.00406
x2 = 0.2005 | 0.0667 ± 0.0043
x2 = 0.2498 | 0.0765 ± 0.00478
x2 = 0.3007 | 0.0841 ± 0.00526
x2 = 0.3496 | 0.0891 ± 0.0055
x2 = 0.4008 | 0.0935 ± 0.00574
x2 = 0.4508 | 0.0939 ± 0.00574
x2 = 0.5008 | 0.0918 ± 0.0055
x2 = 0.5463 | 0.0894 ± 0.0055
x2 = 0.6008 | 0.0848 ± 0.00526
x2 = 0.6463 | 0.0779 ± 0.00478
x2 = 0.7011 | 0.0691 ± 0.00454
x2 = 0.7559 | 0.0586 ± 0.00382
x2 = 0.8005 | 0.0497 ± 0.00359
x2 = 0.8495 | 0.0378 ± 0.00311
x2 = 0.9003 | 0.0253 ± 0.00239
x2 = 0.9519 | 0.0131 ± 0.00215

CCCNCCC [dipropylamine] + CC(=O)N(C)C
[2]
Conditions | excess molar enthalpy [kcal/mol]
x2 = 0.0597 | 0.0234 ± 0.00359
x2 = 0.0996 | 0.0397 ± 0.00382
x2 = 0.1496 | 0.0562 ± 0.0043
x2 = 0.2011 | 0.0717 ± 0.00502
x2 = 0.2497 | 0.0856 ± 0.0055
x2 = 0.3009 | 0.0954 ± 0.00598
x2 = 0.3462 | 0.104 ± 0.00645
x2 = 0.4062 | 0.114 ± 0.00693
x2 = 0.4491 | 0.118 ± 0.00717
x2 = 0.5035 | 0.123 ± 0.00741
x2 = 0.5497 | 0.124 ± 0.00741
x2 = 0.5972 | 0.122 ± 0.00741
x2 = 0.6495 | 0.118 ± 0.00717
x2 = 0.6975 | 0.113 ± 0.00693
x2 = 0.7478 | 0.104 ± 0.00645
x2 = 0.8009 | 0.092 ± 0.00598
x2 = 0.8504 | 0.076 ± 0.0055
x2 = 0.8989 | 0.0571 ± 0.00502
x2 = 0.9368 | 0.0373 ± 0.00478
x2 = 0.9507 | 0.0301 ± 0.00454

CCCCN [1-butanamine] + CC(=O)N(C)C
[2]
Conditions | excess molar enthalpy [kcal/mol]
x2 = 0.0498 | 0.0115 ± 0.00167
x2 = 0.0992 | 0.0213 ± 0.00191
x2 = 0.1518 | 0.0294 ± 0.00215
x2 = 0.1985 | 0.0363 ± 0.00239
x2 = 0.2512 | 0.0394 ± 0.00239
x2 = 0.3004 | 0.0452 ± 0.00287
x2 = 0.3493 | 0.0483 ± 0.00287
x2 = 0.4015 | 0.0495 ± 0.00311
x2 = 0.4508 | 0.05 ± 0.00311
x2 = 0.5005 | 0.0497 ± 0.00311
x2 = 0.5509 | 0.048 ± 0.00287
x2 = 0.6005 | 0.0466 ± 0.00287
x2 = 0.7008 | 0.0382 ± 0.00239
x2 = 0.7995 | 0.0287 ± 0.00191
x2 = 0.8502 | 0.0225 ± 0.00167
x2 = 0.9002 | 0.0153 ± 0.00143
x2 = 0.9594 | 0.00645 ± 0.0012

CCCCNCCCC [dibutylamine] + CC(=O)N(C)C
[2]
Conditions | excess molar enthalpy [kcal/mol]
x2 = 0.0499 | 0.0359 ± 0.0055
x2 = 0.0976 | 0.066 ± 0.00621
x2 = 0.151 | 0.0968 ± 0.00741
x2 = 0.1969 | 0.12 ± 0.00813
x2 = 0.2472 | 0.141 ± 0.00908
x2 = 0.3002 | 0.161 ± 0.01
x2 = 0.3526 | 0.175 ± 0.0108
x2 = 0.3983 | 0.185 ± 0.0112
x2 = 0.4472 | 0.193 ± 0.0117
x2 = 0.5007 | 0.199 ± 0.012
x2 = 0.5507 | 0.199 ± 0.012
x2 = 0.6007 | 0.197 ± 0.012
x2 = 0.6477 | 0.192 ± 0.0117
x2 = 0.6968 | 0.181 ± 0.0112
x2 = 0.7481 | 0.167 ± 0.0105
x2 = 0.8004 | 0.148 ± 0.00956
x2 = 0.8512 | 0.121 ± 0.0086
x2 = 0.9019 | 0.0887 ± 0.00789
x2 = 0.9507 | 0.0485 ± 0.00717
